Laboratory results: US9920088B2, “Triterpene derivative and its anti-influenza use” (Peking University, priority 2012, dated 2018)
Entries after “also recorded” stand apart in the source; their conditions may differ. Like-named read-outs stand apart in the source and are kept apart here.

What was measured:
[1] = Cytotoxicity (CellTiter-Glo), MDCK cells; settings: dog
B/ShenZhen/155/2005 = assay: CPE reduction assay, B/SZ/155; assay type: cell-based; settings: Influenza B virus, B/SZ/155, CPE
[2] = system: A/JiangXi-DongHu/312/2006 (H3N2); assay: microbe, parasite or virus in culture; assay type: cell-based, influenza A virus
[3] = system: A/Puerto Rico/8/34 (H1N1); assay: CPE reduction assay, PR/8 (H1N1); assay type: cell-based; settings: Influenza A virus
[4] = system: influenza virus A/WSN/33(H1N1); assay: Cytopathic effect (CPE) inhibition assay, WSN virus in MDCK cells; assay type: cell-based; settings: for EC50: H1N1|WSN, 48 h; for Viral Infectivity (%): WSN MOI=1, 48 h, lower = better inhibition; for anti-influenza virus activity: WSN, CPE
[5] = system: different influenza viruses; assay: CPE reduction assays on different influenza viruses; assay type: cell-based, influenza A virus and influenza B virus; settings: for inhibition effect on different influenza viruses: PR/8, LN/1109, JX/312, HN/1222, B/SZ/155
in vitro [6] = settings: human
A/WSN/33(H1N1) virus = assay: Time-of-addition experiment (viral NP by Western blotting); assay type: cell-based, influenza A virus
A/WSN/33 (H1N1) virus = assay: Plaque inhibition assay; assay type: cell-based, influenza A virus; settings: for Plaque number: 0 μM = 100
VSV pseudotype virus = assay: microbe, parasite or virus in culture; assay type: cell-based; settings: Vesicular stomatitis virus, read-out: inhibition rate
in vitro [7] = settings: dog
[8] = biological target: influenza virus (WSN strain) hemagglutinin protein (HA) (Influenza A virus, UniProt P03454); assay: Hemagglutination inhibition (HI) assay; settings: chicken erythrocytes
Chain of influenza virus (WSN strain) hemagglutinin protein (HA) (P03454 18-342 limits assumed): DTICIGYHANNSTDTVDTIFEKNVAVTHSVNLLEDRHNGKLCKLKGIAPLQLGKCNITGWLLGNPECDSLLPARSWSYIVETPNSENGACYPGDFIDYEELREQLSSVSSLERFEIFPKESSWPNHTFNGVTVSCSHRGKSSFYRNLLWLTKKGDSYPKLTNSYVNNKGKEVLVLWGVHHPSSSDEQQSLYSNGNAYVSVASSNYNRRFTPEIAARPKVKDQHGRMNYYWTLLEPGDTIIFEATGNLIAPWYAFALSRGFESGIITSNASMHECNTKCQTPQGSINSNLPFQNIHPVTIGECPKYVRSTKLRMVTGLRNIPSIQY
Chain of influenza virus (WSN strain) hemagglutinin protein (HA) (P03454 344-565 partner limits assumed): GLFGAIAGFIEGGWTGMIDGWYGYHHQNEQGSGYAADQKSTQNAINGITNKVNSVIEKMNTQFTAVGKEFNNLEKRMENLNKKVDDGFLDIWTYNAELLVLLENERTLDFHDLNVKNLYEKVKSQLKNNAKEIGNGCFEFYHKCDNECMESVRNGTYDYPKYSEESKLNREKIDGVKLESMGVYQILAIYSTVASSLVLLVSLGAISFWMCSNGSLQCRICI

[9] = system: H1N1 pseudotype virus (A/WSN/33 (H1N1) HA/NA); assay: microbe, parasite or virus in culture; assay type: cell-based; settings: Influenza A virus, H1N1pp, DMSO set to zero, read-out: inhibition rate
[10] = system: H5N1 pseudotype virus (A/VietNam/1203/2004 (H5N1) HA/NA); assay: microbe, parasite or virus in culture; assay type: cell-based; settings: Influenza A virus, H5N1, read-out: inhibition rate
MDCK cells = settings: dog, 48 h; for Cell viability (%) / Cell viability(%): 50 μM
in vitro [11] = settings: human; remark: listed apart in the source
HIV = settings: reported by European researchers; cited from earlier work
[12] = PR/8 (H1N1), CPE, read-out: EC50

| SMILES | EC50 (B/ShenZhen/155/2005) [µM] | EC50 ([2]; Influenza A virus, H3N2) [µM] | EC50 [3, 12] [µM] | EC50 ([4]; MDCK) [µM] | Viral Infectivity (%) ([4]; Table 8, 50 μM) | anti-influenza virus activity ([4]; 50 μM) | inhibition effect on different influenza viruses [5] | CC50 at 48 h (in vitro [6]) [µM] | CC50 at 48 h (in vitro [7]) [µM] | Cell viability (%) (MDCK cells) | CC50 at 48 h (in vitro [11]) [µM] | further results |
| --- | --- | --- | --- | --- | --- | --- | --- | --- | --- | --- | --- | --- |
| NC12CC3CC(CC(C3)C1)C2 [Amantadine, amantadine, reference compound] | > 83.2 | 8.58 ± 1.65 | 7.41 ± 0.21 | – | – | – | – | – | – | – | – | CC50 at 48 h [1]: > 200 µM |
| CC1(C)CC[C@]2(C(=O)O[C@H]3OC(CO)[C@@H](O)C(O)C3O)C(O)C[C@]3(C)C(=CC[C@@H]4[C@@]5(C)CC[C@H](O)C(C)(C)[C@@H]5CC[C@]43C)[C@@H]2C1 (stereo partly drawn) [Compound Q9, 3β,16α-dihydroxy-olean-12-en-28-oic acid-28-O-(β-D-galactoside)] | 36.2 ± 7.21 | 16.9 ± 5.38 | 17.5 ± 0.43 | 48.7 | 21.1 | significant inhibitory effect on influenza virus; also recorded: significant inhibition activity against influenza virus | various extent of inhibition effect | > 100 | > 100 | 100.3 | > 100 | inhibition at 50 µM ([4]; MDCK, Table 9, 50 μM, protective rate against cytopathy, read-out: IAV inhibition rate (%)): 53.6 ± 6.16%; Viral Infectivity (%) ([4]; Table 6, 50 μM): 21.1%; NP level reduction compared with the DMSO control (A/WSN/33(H1N1) virus; interval 0-2 h): ~62%; NP level reduction compared with the DMSO control (A/WSN/33(H1N1) virus; interval 0-10 h): around 75%; antiviral activity (A/WSN/33(H1N1) virus; intervals 2-5, 5-8, and 8-10 h): no antiviral activity was detected; stage of viral lifecycle acted on (A/WSN/33(H1N1) virus; time-of-addition): acted on the entry step of influenza virus into cells; also recorded: effective at the early stage (0-2 h) of the viral lifecycle; IC50 (A/WSN/33 (H1N1) virus; Influenza A virus, WSN, MDCK cells, read-out: IC50 (plaque formation reduction)): < 5 µM; Plaque number (A/WSN/33 (H1N1) virus; Q9 5 μM): 42.9 ± 5.8; Plaque number (A/WSN/33 (H1N1) virus; Q9 10 μM): 21.8 ± 2.5; Plaque number (A/WSN/33 (H1N1) virus; Q9 25 μM): 14.1 ± 1.7; Plaque number (A/WSN/33 (H1N1) virus; Q9 50 μM): 7.6 ± 2.5; Plaque number (A/WSN/33 (H1N1) virus; Q9 100 μM): 0; inhibition at 50 µM (VSV pseudotype virus): 3.8%; effect on binding of viruses to cellular receptors [8]: interfered the binding of viruses to cellular receptors; inhibition at 50 µM [9]: 61.9%; inhibition at 50 µM [10]: 16.8%; CC50 (MDCK cells): > 200 µM; Cell viability(%) (MDCK cells): 89% |
| CC(=O)OCC1O[C@H](O[C@H]2C(COC(C)=O)O[C@H](OC(=O)[C@]34CCC(C)(C)C[C@H]3C3=CC[C@@H]5[C@@]6(C)CC[C@H](O)C(C)(C)[C@@H]6CC[C@@]5(C)[C@]3(C)CC4O)C(OC(C)=O)C2OC(C)=O)C(OC(C)=O)C(OC(C)=O)[C@@H]1OC(C)=O (stereo partly drawn) [Compound Q10, 3β,16α-dihydroxy-olean-12-en-28-oic acid-28-O-(hepta-O-acetyl-β-D-lactoside)] | – | – | – | > 100 | – | – | – | > 100 | > 100 | – | > 100 | Viral Infectivity (%) ([4]; Table 6, 50 μM): 100.6%; Cell viability(%) (MDCK cells): 98.1% |
| CC1(C)CC[C@@]2(C(=O)N[C@H]3OC(CO)[C@@H](O)C(O)C3O)C(C1)C1=CCC3[C@@]4(C)CC[C@H](O)C(C)(C)C4CC[C@@]3(C)[C@]1(C)C[C@H]2O (stereo partly drawn) [Compound Y2, 3β,16α-dihydroxy-olean-12-en-28-oic acid-28-N-(β-D-galactoside)] | > 22.2 | – | 6.22 ± 0.83 | – | 17.5 | significant anti-influenza virus activity | various extent of inhibition effect | – | > 100 | 105.0 | – | EC50 [2]: > 22.2 µM |
| CC(=O)OCC1O[C@H](NC(=O)[C@]23CCC(C)(C)CC2C2=CCC4[C@@]5(C)CC[C@H](O)C(C)(C)C5CC[C@@]4(C)[C@]2(C)CC3)C(OC(C)=O)C(OC(C)=O)[C@@H]1OC(C)=O (stereo partly drawn) [Compound Y5, 3β-hydroxy-olean-12-en-28-oic acid-28-N-(2,3,4,6-tetra-O-acetyl-β-D-galactoside)] | 2.8 ± 0.74 | 2.72 ± 0.35 | 7.41 ± 0.05 | – | 9.0 | significant anti-influenza virus activity; also recorded: most significant anti-influenza virus activity | various extent of inhibition effect | – | > 100 | 81.7 | – | EC50 ([5]; strain not specified): < 2 µM |
| CCOC(=O)C1=C[C@@H](OC(CC)CC)[C@H](NC(C)=O)[C@@H](N)C1 [OSV-P, oseltamivir phosphate, reference compound] | 91.1 ± 34.5 | 2.06 ± 0.58 | > 200 | 45.6 | – | – | – | > 100 | > 100 | – | > 100 | CC50 (MDCK cells): > 200 µM |
| NC(=O)c1ncn([C@@H]2O[C@H](CO)[C@@H](O)[C@H]2O)n1 [RBV, ribavirin, reference compound] | 1.32 ± 0.6 | 4.19 ± 0.35 | – | 42.7 | – | – | – | – | – | – | – | EC50 [3]: 4.02 ± 1.27 µM |
| CC1(C)CC[C@]2(C(=O)O)CC[C@]3(C)C(=CC[C@@H]4[C@@]5(C)C[C@@H](O)[C@H](O)C(C)(C)[C@@H]5CC[C@]43C)[C@@H]2C1 [hawthorn acid] | – | – | – | – | – | – | – | – | – | – | – | inhibition rate of spread of HIV in the body (HIV): up to 80% |
